These results are taken from ChEMBL document CHEMBL1201862, “PubChem BioAssay data set” (2004).

Some test systems named below: A549; SW-620; LOX IMVI; M19-MEL; SK-MEL-28; RXF 393; HCC 2998; SK-MEL-5; SF-268; UO-31; HL-60; COLO 205; OVCAR-8; MOLT-4; MDA-MB-435; MDA-MB-231; HCT-15; SN12C; MCF7; Hs-578T.
Test in all cases: NCI tumour cell line growth inhibition, 48 h

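Protocol summary: plate cells (96-well), add compound at 5 concentrations, incubate 48 h, interpolate endpoints linearly. GI50 is the concentration that inhibits growth by half.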 Active and inactive are the calls of the source. Cut-off read from the data, not from the text of the source: active = GI50 up to about 1.1 µM and inactive = higher.

In the case of `Clc1ccc(C2=NN(c3ccccc3)C3c4cc(Br)ccc4OCC23)cc1` (stereo unspecified), the GI50 in the assay on A549 is > 100 µM (inactive); with SW-620, > 100 µM (inactive); in the assay on LOX IMVI it was 64.3 µM (inactive); in the assay on M19-MEL it was > 100 µM (inactive); in the assay on SK-MEL-28 it was > 100 µM (inactive); in the assay on RXF 393, 61.1 µM (inactive). Besides, the GI50 is > 100 µM (inactive) in the assay on HCC 2998; 59.7 µM (inactive) with SK-MEL-5; 53.6 µM (inactive) in the assay with SF-268; > 100 µM (inactive) in the assay on UO-31; 40.8 µM (inactive) in the assay with HL-60; > 100 µM (inactive) in the assay with COLO 205. Besides, the GI50 was > 100 µM (inactive) in the assay on OVCAR-8 and 40.9 µM (inactive) in the assay with MOLT-4.
In the case of `CCCCCCC(=O)OC[n+]1ccc2c(C)c3[nH]c4ccc(OC)cc4c3c(C)c2c1`, the GI50 with MDA-MB-435 is 0.454 µM (active); in the assay on A549, 0.238 µM (active); in the assay on SW-620, 0.0628 µM (active); in the assay on LOX IMVI, 0.217 µM (active); in the assay with M19-MEL, 0.953 µM (active); in the assay with MDA-MB-231, 0.269 µM (active). Also, the GI50 in the assay with HCT-15 is 0.117 µM; with SK-MEL-28, 1.29 µM (inactive); in the assay on RXF 393, 0.247 µM (active); in the assay with HCC 2998 it was 0.421 µM (active); in the assay on SK-MEL-5 it was 1.16 µM (inactive); with SN12C, 0.0625 µM (active). Further, the GI50 with SF-268 was 0.154 µM (active); in the assay with UO-31, 0.83 µM (active); with MCF7, 0.214 µM (active); in the assay on HL-60 it was 0.245 µM (active); with Hs-578T it was 1.32 µM (inactive); in the assay with COLO 205, 0.207 µM (active). Moreover, the GI50 was 0.0752 µM (active) in the assay with OVCAR-8 and 0.0378 µM (active) in the assay with MOLT-4.
As for `COc1ccc(CC2=NCCc3cc(OC)c(OC)cc32)cc1Br`, the GI50 is 21.6 µM (inactive) in the assay with A549; 7.52 µM (inactive) with SW-620; 5.09 µM (inactive) in the assay on LOX IMVI; 27.5 µM (inactive) with M19-MEL; 19.8 µM (inactive) in the assay on SK-MEL-28; 21.1 µM (inactive) in the assay on RXF 393. The GI50 in the assay with HCC 2998 is 14.1 µM (inactive); in the assay with SK-MEL-5 it was 12.5 µM (inactive); with SN12C it was 15.8 µM (inactive); with SF-268 it was 41.7 µM (inactive); in the assay with UO-31, 16.8 µM (inactive); in the assay with HL-60, 3.1 µM (inactive). For the same molecule, the GI50 in the assay with COLO 205 was 14.6 µM (inactive); in the assay on OVCAR-8, 20.7 µM (inactive); with MOLT-4, 6.18 µM (inactive).
Turning to `O=S1(=O)NN=C(NCc2ccc(Cl)c(Cl)c2)c2ccccc21`, the GI50 in the assay on A549 is > 100 µM (inactive); in the assay on SW-620, 91.2 µM (inactive); in the assay with LOX IMVI, 40.2 µM (inactive); with M19-MEL, > 100 µM (inactive); in the assay on HCT-15, 36 µM; in the assay with RXF 393, 19.8 µM (inactive). In addition, the GI50 is > 100 µM (inactive) in the assay with HCC 2998; 86.9 µM (inactive) in the assay on SK-MEL-5; > 100 µM (inactive) in the assay with SN12C; > 100 µM (inactive) with SF-268; > 100 µM (inactive) in the assay with UO-31; 26.5 µM (inactive) with HL-60. Also, the GI50 in the assay on COLO 205 was > 100 µM (inactive); in the assay on OVCAR-8, > 100 µM (inactive); with MOLT-4 it was 15.1 µM (inactive).
With `Cc1c2cc[n+]([O-])cc2c(C)c2c1[nH]c1ccccc12`, the GI50 is 6.61 µM (inactive) in the assay on MDA-MB-435; 4.28 µM (inactive) in the assay on A549; 1.87 µM (inactive) in the assay with SW-620; 1.67 µM (inactive) in the assay with LOX IMVI; 13.6 µM (inactive) with M19-MEL; 4.28 µM (inactive) in the assay on MDA-MB-231. Besides, the GI50 in the assay on HCT-15 is 5.22 µM; in the assay with SK-MEL-28, 37.8 µM (inactive); in the assay with RXF 393, 6.73 µM (inactive); in the assay on HCC 2998 it was 12.5 µM (inactive); in the assay with SK-MEL-5 it was 6.85 µM (inactive); in the assay with SN12C it was 4.93 µM (inactive). Moreover, the GI50 in the assay on SF-268 is 4.9 µM (inactive); in the assay with UO-31 it was 5.47 µM (inactive); in the assay on MCF7, 1.21 µM (inactive); in the assay on HL-60, 7.8 µM (inactive); in the assay on Hs-578T, 3.54 µM (inactive); with COLO 205 it was 2.15 µM (inactive). Moreover, the GI50 with OVCAR-8 is 2.86 µM (inactive); in the assay with MOLT-4 it was 0.998 µM (active).
On to `O=C(Nc1ccc(Cl)cc1Cl)C(=O)C(C(=O)c1ccncc1)C1OC(=O)c2ccccc21` (stereo unspecified), for which the GI50 was > 100 µM (inactive) in the assay with A549; > 100 µM (inactive) with SW-620; > 100 µM (inactive) in the assay with LOX IMVI; > 100 µM (inactive) in the assay with M19-MEL; more than 100 µM with HCT-15; > 100 µM (inactive) in the assay on SK-MEL-28. The GI50 in the assay on RXF 393, in the assay with HCC 2998, in the assay with SK-MEL-5, in the assay with SN12C, with SF-268 and in the assay on UO-31 was > 100 µM (inactive) each time. For the same molecule, the GI50 in the assay on HL-60, in the assay with COLO 205, in the assay with OVCAR-8 and with MOLT-4 was > 100 µM (inactive) each time.
Take `COc1ccccc1/N=C(\N)N/N=C/c1c[nH]c2ccccc12`: the GI50 in the assay on A549 was 13.2 µM (inactive); with SW-620, 2.72 µM (inactive); with LOX IMVI, 10.4 µM (inactive); with M19-MEL, 11.1 µM (inactive); with HCT-15, 4.2 µM; in the assay with SK-MEL-28, 3.57 µM (inactive). The GI50 is 14.1 µM (inactive) in the assay with RXF 393; 2.55 µM (inactive) in the assay with HCC 2998; 2.78 µM (inactive) in the assay on SK-MEL-5; 10.4 µM (inactive) in the assay with SN12C; 14.2 µM (inactive) in the assay with SF-268; 13.3 µM (inactive) in the assay on UO-31. The GI50 in the assay with HL-60 is 7.29 µM (inactive); in the assay with COLO 205, 1.67 µM (inactive); in the assay on OVCAR-8, 13 µM (inactive); in the assay with MOLT-4 it was 3.13 µM (inactive).
In the case of `CC(=O)Nc1ccc(C2CC(c3ccc([N+](=O)[O-])cc3)=Nc3ccccc3[S+]2[O-])cc1` (stereo unspecified), the GI50 is 38.4 µM (inactive) in the assay with A549; 20 µM (inactive) with SW-620; 14.7 µM (inactive) with LOX IMVI; 15.2 µM (inactive) in the assay on M19-MEL; 20.6 µM with HCT-15; 19.6 µM (inactive) with SK-MEL-28. The GI50 is 17.4 µM (inactive) with RXF 393; 16.3 µM (inactive) in the assay on HCC 2998; 19.6 µM (inactive) in the assay with SK-MEL-5; 24.5 µM (inactive) in the assay on SN12C; 36.6 µM (inactive) in the assay on SF-268; 16.7 µM (inactive) in the assay on UO-31. Further, the GI50 with HL-60 was 17.6 µM (inactive); in the assay with COLO 205 it was 21.8 µM (inactive); in the assay with OVCAR-8 it was 30.5 µM (inactive); with MOLT-4, 12.6 µM (inactive).
Regarding `CCOc1ccc2c(c1)[n+]([O-])c(-c1ccccc1)c(N)[n+]2[O-]`, the GI50 in the assay on A549 is > 100 µM (inactive); in the assay with SW-620 it was > 100 µM (inactive); in the assay on LOX IMVI, > 100 µM (inactive); in the assay on M19-MEL, 62.4 µM (inactive); in the assay with HCT-15, 55.2 µM; with SK-MEL-28, 33.1 µM (inactive). For the same molecule, the GI50 is 68.5 µM (inactive) in the assay on HCC 2998; 24.3 µM (inactive) with SK-MEL-5; > 100 µM (inactive) with SN12C; 36.6 µM (inactive) with SF-268; 96.4 µM (inactive) in the assay on UO-31; 37 µM (inactive) with HL-60. In addition, the GI50 with COLO 205 was 30.5 µM (inactive); in the assay on OVCAR-8, 78.5 µM (inactive); in the assay on MOLT-4, 46.8 µM (inactive).
In the case of `OCC1OC(n2cnc3c2NC=NC[C@H]3O)CC1O` (stereo partly specified), the GI50 is > 500 µM (inactive) in the assay on MDA-MB-435; 463 µM (inactive) in the assay with LOX IMVI; 354 µM (inactive) with M19-MEL; > 500 µM (inactive) in the assay on MDA-MB-231; more than 500 µM with HCT-15; 493 µM (inactive) with SK-MEL-28. Besides, the GI50 in the assay on RXF 393 was 484 µM (inactive); in the assay with HCC 2998, 387 µM (inactive); in the assay on SK-MEL-5, 483 µM (inactive); in the assay on SN12C it was 483 µM (inactive); in the assay with SF-268, 472 µM (inactive); in the assay with UO-31, 460 µM (inactive). Besides, the GI50 in the assay on MCF7 is 441 µM (inactive); with HL-60, 417 µM (inactive); in the assay with Hs-578T, > 500 µM (inactive); with COLO 205, 472 µM (inactive); in the assay with OVCAR-8 it was 489 µM (inactive); with MOLT-4, 418 µM (inactive).
For the molecule `CC1=NN(c2ccccc2)C(=O)C1=C1SCCCS1`, the GI50 in the assay with A549 was 25.4 µM (inactive); in the assay on SW-620, 13.2 µM (inactive); in the assay with LOX IMVI, 23.6 µM (inactive); in the assay with M19-MEL, 32.1 µM (inactive); in the assay on HCT-15 it was 31.9 µM; in the assay with SK-MEL-28 it was 48.6 µM (inactive). In addition, the GI50 was 28.5 µM (inactive) in the assay with RXF 393; 37 µM (inactive) in the assay with HCC 2998; 31.2 µM (inactive) in the assay with SK-MEL-5; 28.2 µM (inactive) with SN12C; 44 µM (inactive) with SF-268; 34.2 µM (inactive) with UO-31. The GI50 was 19.5 µM (inactive) in the assay on HL-60, 15.9 µM (inactive) in the assay with COLO 205, 31.7 µM (inactive) in the assay with OVCAR-8 and 16 µM (inactive) with MOLT-4.
`CCCCCCCCCCCCN(O)C(=O)c1ccccc1`: the GI50 in the assay with A549 was 24.4 µM (inactive); in the assay on SW-620, 34 µM (inactive); with LOX IMVI it was 20.5 µM (inactive); in the assay with M19-MEL, 37.8 µM (inactive); with HCT-15, 9.64 µM; in the assay on SK-MEL-28 it was 36.8 µM (inactive). For the same molecule, the GI50 with RXF 393 is 35.2 µM (inactive); in the assay on HCC 2998 it was 30.3 µM (inactive); with SK-MEL-5 it was > 10 µM (inactive); in the assay on SN12C, 17.1 µM (inactive); in the assay on SF-268 it was 15.1 µM (inactive); with UO-31, 24.3 µM (inactive). Besides, the GI50 is 19.1 µM (inactive) with HL-60, 18.9 µM (inactive) in the assay on OVCAR-8 and 6.44 µM (inactive) with MOLT-4.
